Laboratory results from article PMC7297445, “Pharmacokinetic/Pharmacodynamic Determination and Preclinical Pharmacokinetics of the β-Lactamase Inhibitor ETX1317 and Its Orally Available Prodrug ETX0282” (ACS Infectious Diseases, 2020).

What was measured:
Assay in all cases: Hollow-fiber infection model (HFIM), dose fractionation
Format in all cases: cell-based
Conditions in all cases: with CPD
E. coli ARC2687 = system: E. coli ARC2687
Description: (§1) The PK/PD driver of ETX1317 was assessed in the presence of CPD in both hollow-fiber[28]−[31] and chemostat[32]in vitro infection model systems. In all cases, CPD was administered q12h via a 2 h infusion and eliminated with a 2 h half-life, with the concentration of drug exceeding the MIC (the MIC of CPD in the presence of ETX1317 at a 1:2 ratio) for 50% of the dosing interval for each strain. Representative Emax plots are shown graphically for Escherichia coli ARC2687 in the hollow-fiber model and Klebsiella pneumoniae ARC4420 in the chemostat system (Figure 2). […] This could partially be attributed to the distribution of the concentration ranges utilized for the hollow-fiber infection model (HFIM) where most of the data scatter occurred in the efficacious dose range for lower MIC strains. It is important to note that initial evaluation of K. pneumoniae ARC4420 and ARC5118 was completed in the HFIM but rapid degradation of CPD, presumably through accumulation of β-lactamases in the extra-capillary space of the cartridge precluded a reliable assessment of the PK/PD driver with these strains in this model.[32] […] In both the HFIM and chemostat models the optimum critical threshold of ETX1317 was established through iterative Emax fitting of a range of ETX1317 concentrations from 0.5× to 2× the CPD:ETX1317 MIC value. In the HFIM, %Time > ETX1317 CT of 2× MIC provided the highest correlation to observed activity which appeared to be independent to the apparent intrinsic activity of ETX1317 (as reflected by ETX1317 MICBLI of K. pneumoniae ARC4486 vs ARC4488). […] In both models CPD infused alone mimicked vehicle control as expected with similar growth of +2 to 4 log10 CFU/mL.
(§2) Enterobacteriaceae isolates E. coli ARC2687 and K. pneumoniae isolates ARC4486, ARC4488, ARC5118, and ARC4420 were prepared for infection from an overnight plate culture. On the day of the experiment, a few colonies of bacteria were inoculated in Mueller Hinton Broth II (MHBII, Sigma-Aldrich, St. Louis, MO) and incubated at 35 °C until reaching log-phase growth, about 1 h. In hollow-fiber studies cell population density is confirmed by turbidimetric assay (OD600) and final dilution is adjusted to deliver approximately 15 mL of bacteria (1 × 10^6 CFU/mL) to the extra-capillary space of the hollow-fiber cartridge (Fibercell Systems, Inc., Frederick, MD). After 1 h, targeted drug concentrations were introduced using a 2 h infusion via a syringe pump (Harvard Apparatus, Holliston, MA). For chemostat experiments approximately 1 mL of bacteria (1 × 10^8 CFU/mL) were introduced to the chemostat reservoir bottle with 100 mL MHBII to dilute bacterial culture and reach a target CFU density of 1 × 10^6 CFU/mL. After 5 min, each chemostat bottle was exposed to targeted drug with a 2 h infusion administered via syringe pump.
(§3) ETX1317 and CPD were dissolved in MHBII (accounting for potency) and delivered as a 2 h infusion via syringe pump (Harvard Apparatus, Holliston, MA). Solubility and stability were confirmed at room temperature for the experiment. Dose formulation potency was verified by LC/MS/MS.
(§4) Dose range and dose fractionation were performed in hollow-fiber infection model (HFIM) and chemostat (one-compartment) in vitro infection model. Bacteria treated with media only (growth control) and dose arms spanning a 64-fold exposure range of drug delivered within regimens of q6h, q12h, and q24h were used. E. coli ARC2687 and K. pneumoniae ARC4486 and ARC4488 were completed in the HFIM. K. pneumoniae ARC5118 and ARC4420 were studied in the chemostat system. CPD concentrations were targeted to achieve exposure of ∼50%Time > MIC determined in the presence of ETX1317. Both CPD and ETX1317 were administered via a 2 h infusion from syringe pumps (Harvard Apparatus) to mimic the approximate Cmax following oral absorption observed clinically for CDP. […]

K. pneumoniae ARC4486 = system: K. pneumoniae ARC4486
Description: as §1, §2, §3, §4

K. pneumoniae ARC4488 = system: K. pneumoniae ARC4488
Description: as §1, §2, §3, §4

SMILES: CC1=C[C@@H](C(N)=O)N2C[C@@H]1N(O[C@H](F)C(=O)O)C2=O [ETX1317]
- %Time > CT of 1 μg/mL for 1–log10 kill (E. coli ARC2687): 14%
- %Time > CT of 1 μg/mL for stasis (E. coli ARC2687): 7%
- %Time > CT of 1 μg/mL for 1–log10 kill (K. pneumoniae ARC4486): 49%
- %Time > CT of 1 μg/mL for stasis (K. pneumoniae ARC4486): 37%
- %Time > CT of 1 μg/mL for 1–log10 kill (K. pneumoniae ARC4488): 47%
- %Time > CT of 1 μg/mL for stasis (K. pneumoniae ARC4488): 43%
